Test results as given in PubChem BioAssay AID330 (DTP/NCI, 2004).
Several values for one entry are separate records, joined by “and”; a condition that tells them apart may be missing. Identical values can stand only once. Inconclusive results and toxic doses are left out.

System: P388 leukemia ip, CD2F1 mice, survival T/C
Assay: NCI In Vivo Anticancer Drug Screen. Data for tumor model P388 Leukemia (intraperitoneal) in CD2F1 (CDF1) mice
Details: endpoint: median survival time, higher = longer survival
Procedure, shortened: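 Mice carrying the transplanted tumor received test compound or vehicle. Survival was recorded in each group, and the value is the treated-group measurement divided by that of the vehicle-treated control group.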

[1] = dose: 12.5 mg/kg/injection, schedule: Q01DX009 (ip), vehicle: saline
[2] = dose: 100.0 mg/kg/injection, schedule: Q01DX009 (ip), vehicle: suspension in saline
[3] = dose: 400.0 mg/kg/injection, schedule: Q04DX003 (ip), vehicle: saline with Tween-80
[4] = dose: 50.0 mg/kg/injection, schedule: Q01DX009 (ip), vehicle: Klucel (hydroxypropylcellulose) (HPC)
[5] = dose: 100.0 mg/kg/injection, schedule: Q01DX009 (ip), vehicle: Klucel (hydroxypropylcellulose) (HPC)
[6] = dose: 200.0 mg/kg/injection, schedule: Q01DX009 (ip), vehicle: Klucel (hydroxypropylcellulose) (HPC)
[7] = dose: 50.0 mg/kg/injection, schedule: Q01DX005 (ip), vehicle: saline with Tween-80
[8] = dose: 100.0 mg/kg/injection, schedule: Q01DX005 (ip), vehicle: saline with Tween-80
[9] = dose: 200.0 mg/kg/injection, schedule: Q01DX005 (ip), vehicle: saline with Tween-80
[10] = dose: 50.0 mg/kg/injection, schedule: Q01DX005 (ip), vehicle: saline

C1OC1CO[C@@H]1CO[C@H]2[C@@H]1OC[C@H]2OCC1CO1 (some centres undefined)
T/C [1]: 120 % of control | T/C (dose: 100.0 mg/kg/injection, schedule: Q01DX009 (ip), vehicle: saline): 194 % of control | T/C [2]: 163 % of control | T/C (dose: 200.0 mg/kg/injection, schedule: Q01DX009 (ip), vehicle: saline): 192 % of control | T/C (dose: 400.0 mg/kg/injection, schedule: Q01DX009 (ip), vehicle: saline with Tween-80): 213 % of control | T/C (dose: 400.0 mg/kg/injection, schedule: Q01DX009 (ip), vehicle: saline): 94 % of control | T/C (dose: 400.0 mg/kg/injection, schedule: Q01DX009 (ip), vehicle: suspension in saline): 100 % of control | T/C [3]: 186 % of control | T/C (dose: 600.0 mg/kg/injection, schedule: Q04DX003 (ip), vehicle: saline with Tween-80): 200 % of control

C(=C\c1ccccc1)/CN1CCN(C(c2ccccc2)c2ccccc2)CC1
T/C [4]: 97 % of control | T/C [5]: 94 % of control | T/C [6]: 90 % of control

O=[N+]([O-])/C=C/c1cc2c(ccc3ccccc32)[nH]1
T/C [7]: 91 % of control | T/C [8]: 93 % of control | T/C [9]: 99 % of control

CCN(CC)CCN1C(=O)[C@H]2CC=CC[C@H]2C1=O
T/C [10]: 99 % of control | T/C (dose: 100.0 mg/kg/injection, schedule: Q01DX005 (ip), vehicle: saline): 105 % of control | T/C (dose: 200.0 mg/kg/injection, schedule: Q01DX005 (ip), vehicle: saline): 97 % of control

CCCCCn1[nH]nc(C(=O)OC)c1=O (tested in a mixture with another compound)
T/C (dose: 50.0 mg/kg/injection, schedule: Q01DX005 (ip), vehicle: Klucel (hydroxypropylcellulose) (HPC)): 102 % of control | T/C (dose: 100.0 mg/kg/injection, schedule: Q01DX005 (ip), vehicle: Klucel (hydroxypropylcellulose) (HPC)): 95 % of control | T/C (dose: 200.0 mg/kg/injection, schedule: Q01DX005 (ip), vehicle: Klucel (hydroxypropylcellulose) (HPC)): 103 % of control

CCCCCOC(=O)C1=CCN2CCCC12C (centres undefined)
T/C (dose: 25.0 mg/kg/injection, schedule: Q01DX001 (ip), vehicle: saline with Tween-80): 97 % of control | T/C (dose: 50.0 mg/kg/injection, schedule: Q01DX001 (ip), vehicle: saline with Tween-80): 105 % of control | T/C (dose: 100.0 mg/kg/injection, schedule: Q01DX001 (ip), vehicle: saline with Tween-80): 97 % of control

CCN(CC)C(=O)c1ccccc1-c1ccccc1C(=O)N(CC)CC
T/C (dose: 100.0 mg/kg/injection, schedule: Q04DX003 (ip), vehicle: saline): 101 % of control | T/C (dose: 200.0 mg/kg/injection, schedule: Q04DX003 (ip), vehicle: saline): 98 % of control | T/C (dose: 400.0 mg/kg/injection, schedule: Q04DX003 (ip), vehicle: saline): 95 % of control

O=C1OC(=Nc2cccc([N+](=O)[O-])c2)c2ccccc21
T/C (dose: 25.0 mg/kg/injection, schedule: Q01DX009 (ip), vehicle: saline with Tween-80): 99 % of control and 103 % of control | T/C (dose: 50.0 mg/kg/injection, schedule: Q01DX009 (ip), vehicle: saline with Tween-80): 100 % of control and 95 % of control | T/C (dose: 100.0 mg/kg/injection, schedule: Q01DX009 (ip), vehicle: saline with Tween-80): 99 % of control and 95 % of control | T/C (dose: 200.0 mg/kg/injection, schedule: Q01DX009 (ip), vehicle: saline with Tween-80): 88 % of control and 95 % of control

COC1CC(O)(CCNc2ccc([N+](=O)[O-])cc2[N+](=O)[O-])C(O)C(CO)O1 (centres undefined)
T/C (dose: 20.0 mg/kg/injection, schedule: Q01DX001 (ip), vehicle: Klucel (hydroxypropylcellulose) (HPC)): 100 % of control | T/C (dose: 40.0 mg/kg/injection, schedule: Q01DX001 (ip), vehicle: Klucel (hydroxypropylcellulose) (HPC)): 93 % of control | T/C (dose: 80.0 mg/kg/injection, schedule: Q01DX001 (ip), vehicle: Klucel (hydroxypropylcellulose) (HPC)): 94 % of control

CCCCN(CCCC)C(=N)OC
T/C (dose: 12.5 mg/kg/injection, schedule: Q01DX005 (ip), vehicle: suspension in saline): 100 % of control | T/C (dose: 25.0 mg/kg/injection, schedule: Q01DX005 (ip), vehicle: suspension in saline): 108 % of control | T/C [10]: 99 % of control | T/C (dose: 50.0 mg/kg/injection, schedule: Q01DX005 (ip), vehicle: suspension in saline): 117 % of control

COc1cc(C2NC(C(=O)O)CS2)cc(OC)c1OC (centres undefined)
T/C (dose: 50.0 mg/kg/injection, schedule: Q01DX009 (ip), vehicle: suspension in saline): 94 % of control | T/C [2]: 97 % of control | T/C (dose: 200.0 mg/kg/injection, schedule: Q01DX009 (ip), vehicle: suspension in saline): 96 % of control

CCN(CC)CCOc1cccc(NC(=O)CN(CC)CC)c1
T/C (dose: 15.0 mg/kg/injection, schedule: Q01DX005 (ip), vehicle: Klucel (hydroxypropylcellulose) (HPC)): 106 % of control | T/C (dose: 30.0 mg/kg/injection, schedule: Q01DX005 (ip), vehicle: Klucel (hydroxypropylcellulose) (HPC)): 103 % of control | T/C (dose: 60.0 mg/kg/injection, schedule: Q01DX005 (ip), vehicle: Klucel (hydroxypropylcellulose) (HPC)): 105 % of control and 96 % of control

CCCCCCCCCCCCNC(=O)[C@@]1(O)[C@H](O)C2(CC)C=CCN3CCC4(c5cc([C@@]6(C(=O)OC)CC7CN(CCc8c6[nH]c6ccccc86)C[C@](O)(CC)C7)c(OC)cc5N(C)[C@H]41)C32 (some centres undefined)
T/C (dose: 18.0 mg/kg/injection, schedule: Q01DX005 (ip), vehicle: other): 157 % of control | T/C (dose: 30.0 mg/kg/injection, schedule: Q01DX005 (ip), vehicle: other): 182 % of control | T/C (dose: 30.0 mg/kg/injection, schedule: Q01DX005 (ip), vehicle: saline): 160 % of control | T/C (dose: 50.0 mg/kg/injection, schedule: Q01DX005 (ip), vehicle: other): 230 % of control | T/C [10]: 177 % of control

O=C1CN(c2cccc(Cl)c2)C(=O)CN1/N=C/c1ccc[nH]1
T/C [7]: 92 % of control | T/C [8]: 102 % of control | T/C [9]: 90 % of control

O=C(Nc1ccccn1)c1ccccc1S(=O)(=O)O
T/C [7]: 102 % of control | T/C [8]: 104 % of control | T/C [9]: 99 % of control

S=C1NCC(c2ccccc2)(c2ccccc2)N1
T/C (dose: 6.25 mg/kg/injection, schedule: Q04DX003 (ip), vehicle: Klucel (hydroxypropylcellulose) (HPC)): 103 % of control | T/C (dose: 12.5 mg/kg/injection, schedule: Q04DX003 (ip), vehicle: Klucel (hydroxypropylcellulose) (HPC)): 98 % of control

O=C(NC(CCS(=O)(=O)NO)C(=O)OCc1ccccc1)OCc1ccccc1 (centres undefined)
T/C (dose: 12.5 mg/kg/injection, schedule: Q01DX009 (ip), vehicle: other): 100 % of control | T/C (dose: 25.0 mg/kg/injection, schedule: Q01DX009 (ip), vehicle: other): 95 % of control | T/C (dose: 50.0 mg/kg/injection, schedule: Q01DX009 (ip), vehicle: other): 109 % of control | T/C (dose: 100.0 mg/kg/injection, schedule: Q01DX009 (ip), vehicle: other): 95 % of control | T/C (dose: 200.0 mg/kg/injection, schedule: Q01DX009 (ip), vehicle: other): 92 % of control

OCC1OC(Oc2ccc3cc(Br)ccc3c2)C(O)C1O (centres undefined)
T/C [4]: 90 % of control | T/C [5]: 99 % of control | T/C [6]: 97 % of control

COc1ccc(CC2=CC(=O)C(=O)C=C2C)cc1
T/C (dose: 2.5 mg/kg/injection, schedule: Q01DX009 (ip), vehicle: saline + alcohol): 101 % of control | T/C (dose: 5.0 mg/kg/injection, schedule: Q01DX009 (ip), vehicle: saline + alcohol): 100 % of control | T/C (dose: 10.0 mg/kg/injection, schedule: Q01DX009 (ip), vehicle: saline + alcohol): 102 % of control

COc1cc(OC)c(C(c2cc3c(cc2O)OCO3)N2CCOCC2)c(OC)c1 (centres undefined)
T/C (dose: 60.0 mg/kg/injection, schedule: Q01DX005 (ip), vehicle: saline with Tween-80): 118 % of control | T/C (dose: 120.0 mg/kg/injection, schedule: Q01DX005 (ip), vehicle: saline with Tween-80): 120 % of control

NC(=S)N/N=C/c1cc(Br)ccc1O
T/C (dose: 100.0 mg/kg/injection, schedule: Q04DX003 (ip), vehicle: saline with Tween-80): 86 % of control | T/C (dose: 200.0 mg/kg/injection, schedule: Q04DX003 (ip), vehicle: saline with Tween-80): 94 % of control | T/C [3]: 112 % of control

CC1(C(=O)O)CCC2(C(=O)O)CCC3(C)C(=CCC4C5(C)CC(O)C(O)C(C)(CO)C5CCC43C)C2C1 (centres undefined)
T/C (dose: 6.25 mg/kg/injection, schedule: Q01DX009 (ip), vehicle: saline): 100 % of control | T/C [1]: 100 % of control | T/C (dose: 25.0 mg/kg/injection, schedule: Q01DX009 (ip), vehicle: saline): 96 % of control

O=C1c2ccccc2C2(O)C(=O)c3ccccc3C12 (centres undefined)
T/C (dose: 100.0 mg/kg/injection, schedule: Q01DX001 (ip), vehicle: Klucel (hydroxypropylcellulose) (HPC)): 102 % of control | T/C (dose: 200.0 mg/kg/injection, schedule: Q01DX001 (ip), vehicle: Klucel (hydroxypropylcellulose) (HPC)): 105 % of control | T/C (dose: 400.0 mg/kg/injection, schedule: Q01DX001 (ip), vehicle: Klucel (hydroxypropylcellulose) (HPC)): 108 % of control
